Test results from US11530196B2, “Pyrimidine compound acting on EGFR and ERBB2” (CHINA RESOURCES PHARMACEUTICAL HOLDINGS COMPANY LIMITED, priority 2019, dated 2022).

Tests used:
[1] = system: H1975 (L858R/T790M) cells; assay: Anti-proliferation activity test against H1975 cells; assay type: cell-based; settings: Homo sapiens, NCI-H1975, Cell-Titer Glo, 72 hours
Procedure: (2) Anti-Proliferation Activity Test of the Compound Against H1975 Cells and IC50 Test of Anti-Proliferation Activity Against A431 Cells
RPMI1640 medium, FBS fetal bovine serum, trypsin-EDTA, were all purchased from Giboco. DPBS was purchased from Corning, penicillin/streptomycin solution was purchased from Hyclone, and Cell-Titer Glo reagent was purchased from Promega (1kit, Cat. No. G7571). Plate reading instrument: Envision (PerkinElmer).
384-well plates in columns 1, 2, and 24 were added with 45 μL of medium, and the cell suspension was dispensed with Multi-drop at 45 μL per well (1000 cells) and incubated overnight in an incubator. The compound was added to the source plate according to the Echo dispensing requirements, the compound in the source plate was added to the inter plate and diluted to an intermediate concentration, then the compound in the source plate and the inter plate was added to the cell plate, and the cells were continued to be incubated in a incubator for 72 hours. After 72 hours, Cell-Titer Glo reagent and cells were removed and equilibrated at room temperature for 30 min. 25 μL of Cell-Titer Glo reagent was dispensed into 384-well plates with Multi-drop, the cell plate was vibrated at medium speed for 3 min, centrifuged at 1000 rpm for 2 min, and stood for 10 min. The plate was read by Envision (Luminescence). […]

[2] = target: Ba/F3 EGFR-H773_V774insNPH (Homo sapiens, UniProt P00533, DUP771-773, cells depend on it); assay: Anti-proliferation against Ba/F3 exon 20 insertion mutant cells (NPH); assay type: cell-based, mouse; settings: CTG, 72 hours, read-out: Mutant cells IC50 (anti-proliferation)
Chain of Ba/F3 EGFR-H773_V774insNPH (P00533 with tags, fused parts or gaps DUP771-773): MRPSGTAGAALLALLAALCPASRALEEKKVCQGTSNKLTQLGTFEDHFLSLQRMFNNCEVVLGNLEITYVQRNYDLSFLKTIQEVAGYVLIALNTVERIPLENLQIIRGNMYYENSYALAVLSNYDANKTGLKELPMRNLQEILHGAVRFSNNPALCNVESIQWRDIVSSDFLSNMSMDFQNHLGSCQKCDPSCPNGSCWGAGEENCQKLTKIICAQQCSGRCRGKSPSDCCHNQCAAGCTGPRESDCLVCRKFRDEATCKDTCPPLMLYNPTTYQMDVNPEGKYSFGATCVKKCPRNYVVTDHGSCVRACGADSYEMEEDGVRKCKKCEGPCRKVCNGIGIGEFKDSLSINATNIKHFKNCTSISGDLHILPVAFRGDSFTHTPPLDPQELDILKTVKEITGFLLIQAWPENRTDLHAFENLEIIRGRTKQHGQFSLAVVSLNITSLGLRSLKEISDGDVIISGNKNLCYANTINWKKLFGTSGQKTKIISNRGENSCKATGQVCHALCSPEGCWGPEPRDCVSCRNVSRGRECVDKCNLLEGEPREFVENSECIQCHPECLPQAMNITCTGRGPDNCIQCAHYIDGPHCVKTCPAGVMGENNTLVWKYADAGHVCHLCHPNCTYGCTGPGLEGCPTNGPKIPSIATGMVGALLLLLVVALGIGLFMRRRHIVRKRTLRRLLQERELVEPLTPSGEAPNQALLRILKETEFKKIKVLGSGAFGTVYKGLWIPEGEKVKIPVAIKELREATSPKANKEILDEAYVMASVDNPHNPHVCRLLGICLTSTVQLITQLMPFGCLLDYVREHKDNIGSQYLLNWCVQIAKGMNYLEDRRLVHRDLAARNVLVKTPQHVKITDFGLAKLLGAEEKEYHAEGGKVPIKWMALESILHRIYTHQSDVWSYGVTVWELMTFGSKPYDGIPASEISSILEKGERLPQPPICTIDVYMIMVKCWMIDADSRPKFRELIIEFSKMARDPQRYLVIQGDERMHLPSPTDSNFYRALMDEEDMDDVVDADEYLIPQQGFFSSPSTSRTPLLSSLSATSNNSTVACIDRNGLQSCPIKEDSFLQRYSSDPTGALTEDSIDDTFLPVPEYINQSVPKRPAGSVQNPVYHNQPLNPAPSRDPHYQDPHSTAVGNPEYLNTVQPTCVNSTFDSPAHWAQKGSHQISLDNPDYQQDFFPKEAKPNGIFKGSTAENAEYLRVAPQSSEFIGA
From the text: (§1) RPMI1640 medium was purchased from Hyclone, FBS fetal bovine serum was purchased from GBICO, and trypsin-EDTA were both purchased from Giboco. DPBS was purchased from Corning, penicillin/streptomycin solution was purchased from Hyclone, and Cell-Titer Glo reagent was purchased from Promega (Cat. No. G7572). Ba/F3 EGFR-D770_N771insSVD, Ba/F3 EGFR-H773_V774insNPH, Ba/F3 EGFR-V769_D770insASV, BaF3 ERBB2 A775_G776 ins YVMA, the cell lines were constructed by Beijing Kang Yuan Bochuang Biotechnology Co., Ltd. Plate reading instrument: Envision (PerkinElmer).
(§2) Cells in logarithmic growth phase were harvested and cell counts were performed using a […]. Cell viability was detected by the Taipan Blue rejection assay. The cell concentration was adjusted; the cell suspension was added to a 96-well plate separately. Cells in 96-well plates were incubated overnight at 37° C., 5% CO2, and 95% humidity. […] The cell plate was placed at room temperature to stabilize the cold light signal, and the cold light values were read. The data were analyzed using GraphPad Prism 7.0 software, and a nonlinear S-curve regression was used to fit the data to derive the dose-effect curve from which the IC50 values were calculated. […]

[3] = target: Ba/F3 EGFR-V769_D770insASV (Homo sapiens, UniProt P00533, DUP767-769, cells depend on it); assay: Anti-proliferation against Ba/F3 exon 20 insertion mutant cells (ASV); assay type: cell-based, mouse; settings: CTG, 72 hours, read-out: Mutant cells IC50 (anti-proliferation)
Chain of Ba/F3 EGFR-V769_D770insASV (P00533 with tags, fused parts or gaps DUP767-769): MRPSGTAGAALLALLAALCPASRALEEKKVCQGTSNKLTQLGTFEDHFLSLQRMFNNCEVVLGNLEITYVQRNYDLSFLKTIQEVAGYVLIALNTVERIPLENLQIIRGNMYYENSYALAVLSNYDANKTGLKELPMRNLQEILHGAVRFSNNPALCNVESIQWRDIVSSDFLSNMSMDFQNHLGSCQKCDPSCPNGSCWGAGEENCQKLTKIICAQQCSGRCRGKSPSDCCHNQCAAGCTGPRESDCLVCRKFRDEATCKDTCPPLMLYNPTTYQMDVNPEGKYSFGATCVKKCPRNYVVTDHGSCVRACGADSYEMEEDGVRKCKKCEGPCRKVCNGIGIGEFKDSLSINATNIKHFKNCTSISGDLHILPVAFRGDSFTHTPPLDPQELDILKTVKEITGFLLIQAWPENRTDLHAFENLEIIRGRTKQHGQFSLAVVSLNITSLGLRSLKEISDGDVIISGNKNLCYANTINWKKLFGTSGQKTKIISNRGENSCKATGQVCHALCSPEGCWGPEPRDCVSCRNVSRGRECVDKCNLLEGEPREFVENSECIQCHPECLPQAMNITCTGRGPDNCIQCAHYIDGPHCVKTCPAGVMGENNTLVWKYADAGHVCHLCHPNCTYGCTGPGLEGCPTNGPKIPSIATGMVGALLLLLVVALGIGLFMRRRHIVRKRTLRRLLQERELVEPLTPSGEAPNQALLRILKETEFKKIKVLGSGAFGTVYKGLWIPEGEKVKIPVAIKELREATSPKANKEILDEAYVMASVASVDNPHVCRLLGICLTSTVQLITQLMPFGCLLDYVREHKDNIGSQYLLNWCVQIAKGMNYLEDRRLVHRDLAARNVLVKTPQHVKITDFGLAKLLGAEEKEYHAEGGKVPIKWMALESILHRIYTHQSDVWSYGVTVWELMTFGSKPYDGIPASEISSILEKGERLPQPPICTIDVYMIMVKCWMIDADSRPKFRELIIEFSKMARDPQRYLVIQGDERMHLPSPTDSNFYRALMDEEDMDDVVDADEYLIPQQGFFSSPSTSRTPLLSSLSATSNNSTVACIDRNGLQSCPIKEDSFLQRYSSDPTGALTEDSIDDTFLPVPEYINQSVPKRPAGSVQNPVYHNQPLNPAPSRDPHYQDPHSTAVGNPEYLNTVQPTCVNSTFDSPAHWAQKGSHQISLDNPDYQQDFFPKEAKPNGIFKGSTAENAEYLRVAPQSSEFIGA
From the text: as §1, §2

[4] = Pharmacokinetic study, single intravenous and oral administration in rats; assay type: in vivo; settings: rat, plasma; for AUC(0-t): read-out: Exposure of AUC0-last
Procedure: (§3) The purpose of this experiment was to investigate the pharmacokinetics (PK) of the compounds in different species after single intravenous and single oral administration of the test compounds.
(§4) After intravenous or oral administration, blood samples were collected from the animals, and the actual time of blood collection was recorded. After the blood samples were collected, the samples were immediately transferred to the labelled centrifuge tube containing K2-EDTA, and then centrifuged to obtain plasma. Plasma was transferred to pre-cooled centrifuge tubes, quick-frozen in dry ice and stored in an ultra-low temperature refrigerator at −70±10° C. until LC-MS/MS analysis was performed.
(§5) The plasma drug concentration data of the compounds were processed using pharmacokinetic software with a non-compartmental model. The peak concentration (Cmax) and time to peak (Tmax), as well as the quantifiable end time were obtained directly from the plasma concentration-time curve. The following pharmacokinetic parameters were calculated using the log-linear trapezoidal method: half-life (T1/2), apparent volume of distribution (Vdss), and clearance (Cl), area under the time-plasma concentration curve from point 0 to the end time point (AUC0-last), and initial concentration (C0).

[5] = Pharmacokinetic study, single intravenous and oral administration in Beagle dogs; assay type: in vivo; settings: dog, plasma; for AUC(0-t): read-out: Exposure of AUC0-last
Procedure: as §3, §4, §5

[6] = intravenous injection 2 mg/kg, read-out: Exposure of AUC
[7] = intravenous injection 2 mg/kg, read-out: Vdss

IC50 [1]: 15.3 nM | GI50 [2]: 15 nM | GI50 [3]: 7 nM | clearance ([4]; intravenous injection 2 mg/kg): 90.5 mL/min/kg | half-life ([4]; intravenous injection 2 mg/kg): 2.62 h | AUC [4, 6]: 0.548 µM·h | Vd [4, 7]: 18 L/kg | bioavailability ([4]; oral 10 mg/kg): 21.6% | AUC(0-t) ([4]; oral 10 mg/kg): 0.593 µM·h | bioavailability ([4]; oral 20 mg/kg): 57.1% | AUC(0-t) ([4]; oral 20 mg/kg): 3.13 µM·h | bioavailability ([4]; oral 50 mg/kg): 68.6% | AUC(0-t) ([4]; oral 50 mg/kg): 9.39 µM·h | bioavailability ([4]; oral 200 mg/kg): 34.5% | AUC(0-t) ([4]; oral 200 mg/kg): 18.9 µM·h | clearance ([5]; intravenous injection 2 mg/kg): 12.7 mL/min/kg | half-life ([5]; intravenous injection 2 mg/kg): 8.79 h | AUC [5, 6]: 3.85 µM·h | Vd [5, 7]: 7.98 L/kg | bioavailability ([5]; oral 10 mg/kg): 53.5% | AUC(0-t) ([5]; oral 10 mg/kg): 10.3 µM·h | bioavailability ([5]; oral 50 mg/kg): 36.6% | AUC(0-t) ([5]; oral 50 mg/kg): 35.3 µM·h
SMILES: C=CC(=O)Nc1cc(Nc2ncc(C(=O)OC(C)C)c(-c3cn(OC)c4ccccc34)n2)c(OC)cc1N(C)CCN(C)C.CS(=O)(=O)O [Compound 1]
